Patent US20260200964A1, “MONOSACCARIDES, PHARMACEUTICAL COMPOSITIONS, AND DIAGNOSTIC AND THERAPEUTIC APPLICATIONS” (Surio Therapeutics Co., LTD., priority 2022, published 2026)

What was measured:
[1] = tested on: A549 cells; experiment: Flow cytometry analysis of cell labeling (azido labeling efficiency); assay type: cell-based; settings: Homo sapiens; A549 cells (lung); azido compound 25 μM, 48 h; mean fluorescence of live cells compared with PBS negative control
Experimental: Cells (2.0×10^6 cells/mL, 2 mL) were seeded in a 6-well culture plate and attached at 37° C. overnight. After washed thrice with PBS, the cells were incubated with an azido compound (25 μM) at 37° C. for 48 h. After washed thrice with PBS, the cells were incubated with DBCO-biotin (50 μM) in 500 μL serum free DMEM at 37° C. for 1 h. The cells were washed thrice with PBS and then incubated with streptavidin-Cy5 (5 μg/mL) in 500 μL serum free DMEM at 37° C. for 1 h. The cells were washed thrice with PBS, followed by addition of 300 μL 1×trypsin/EDTA for digestion. The lifted cells were transferred to a 1.5 mL EP tube, centrifuge at 1,000 rpm for 3 min, and washed with PBS once. Finally, 500 μL PBS containing 4% PFA was added to the cell pellet to fix the cells. The cell suspension was transferred to a flow tube and mixed with 10 μL of a PI working solution (50 μg/mL) at room temperature for 30 min before being subjected to flow cytometry.
Flow cytometry was used to characterize the labeling efficiency of a compound provided herein. After cells were labeled with an azido group, DBCO-biotin was added to specifically react with the azido group. Avidin-Cy5 was added bind to the cell surface biotin for a flow cytometry analysis. Dead cells were stained with PI and excluded from the analysis. Results were presented as the mean fluorescence of live cells, compared with PBS as a negative control and Ac4ManNAz (AAM) as a positive control, Ac4ManNAz (AAM, CAS: 361154-30-5).

[2] = Compound stability in a biological matrix (mouse plasma); assay type: in vitro ADME; settings: 10 μg/mL, 37° C., LC-MS/MS
Experimental: (§1) A compound was dissolved in DMSO as a 1 mg/mL stock solution. An ACN solution of the compound at 100 μg/mL was prepared from the stock solution, 10 μL of which was added to a biological matrix (90 μL) to the final concentration of 10 μg/mL for the compound. The mixtures of the compound in a biological matrix were incubated at 37° C. for 0, 0.5, 1, or 4 h. At each time point, ACN (900 μL) was added to a mixture. After the mixture was centrifuged at 15,000 rpm for 5 min, the supernatant was mixed with the same volume of H2O (1% TFA) and then analyzed by LC-MS/MS. The results are summarized in Table 3, wherein Cbz-AAM is (2R,3S,4R,5S)-6-((4-((S)-6-acetamido-2-(((benzyloxy)carbonyl)amino)hexan-amido)phenyl)(phenyl)methoxy)-2-(acetoxymethyl)-5-(2-azidoacetamido)tetrahydro-2H-pyran-3,4-diyl diacetate.

[3] = Compound stability in a biological matrix (human plasma); assay type: in vitro ADME; settings: 10 μg/mL, 37° C., LC-MS/MS
Experimental: as §1

SMILES	Compound Remaining (%) Mouse 1 h [2] [%]	Compound Remaining (%) Mouse 4 h [2] [%]	Compound Remaining (%) Human 1 h [3] [%]	Compound Remaining (%) Human 4 h [3] [%]	activity at 25 µM [1] [%]
CC(=O)NCCCC[C@H](NC(=O)OCc1ccccc1)C(=O)Nc1ccc(C(OC2OC(COC(=O)c3cccnc3)C(OC(C)=O)C(OC(C)=O)C2NC(=O)CN=[N+]=[N-])c2ccnn2C)cc1 (stereo partly drawn) [Compound A13, 1-O-(1-(2-Methylpyrazol-3-yl)-1-(4-(6-acetamido-2(S)-(benzyloxycarbonyl-amino)hexanamido)phenyl)methyl)-2-(2-azidoacetylamino)-2-deoxy-3,4-di-O-acetyl-6-O-(pyridin-3-ylcarbonyl)-D-mannopyranoside]	76	22	50	12	180
CC(=O)NCCCC[C@H](NC(=O)OCc1ccccc1)C(=O)Nc1ccc(C(OC2OC(COC(C)=O)C(OC(C)=O)C(OC(C)=O)C2NC(=O)CN=[N+]=[N-])c2cccs2)cc1 (stereo partly drawn) [Compound A4, 1-O-(1-(thien-2-yl)-1-(4-(6-acetamido-2(S)-(benzyloxycarbonylamino)-hexanamido)phenyl)methyl)-2-(2-azidoacetylamino)-2-deoxy-3,4,6-tri-O-acetyl-D-mannopyranoside]	3	3	2	1	83
CC(=O)NCCCC[C@H](NC(=O)OCc1ccccc1)C(=O)Nc1ccc(C(OC2O[C@H](COC(C)=O)[C@@H](OC(C)=O)[C@H](OC(C)=O)[C@@H]2NC(=O)CN=[N+]=[N-])c2ccccc2)cc1 (stereo partly drawn) [Cbz-AAM, (2R,3S,4R,5S)-6-((4-((S)-6-acetamido-2-(((benzyloxy)carbonyl)amino)hexan-amido)phenyl)(phenyl)methoxy)-2-(acetoxymethyl)-5-(2-azidoacetamido)tetrahydro-2H-pyran-3,4-diyl diacetate, reference compound]	16		100	100	
CC(=O)NCCCC[C@H](NC(=O)OCc1ccccc1)C(=O)Nc1ccc(C(OC2OC(COC(=O)Cc3cccnc3)C(OC(C)=O)C(OC(C)=O)C2NC(=O)CN=[N+]=[N-])c2ccnn2C)cc1 (stereo partly drawn) [Compound A12, 1-O-(1-(2-Methylpyrazol-3-yl)-1-(4-(6-acetamido-2(S)-(benzyloxycarbonyl-amino)hexanamido)phenyl)methyl)-2-(2-azidoacetylamino)-2-deoxy-3,4-di-O-acetyl-6-O-(pyridin-3-ylacetyl)-D-mannopyranoside]	82	27	64	8	165
CC(=O)NCCCC[C@H](NC(=O)OCc1ccccc1)C(=O)Nc1ccc(C(OC2OC(COC(C)=O)C(OC(C)=O)C(OC(C)=O)C2NC(=O)CN=[N+]=[N-])c2cn(C)cn2)cc1 (stereo partly drawn) [Compound A2, 1-O-(1-(1-methylimidazol-4-yl)-1-(4-(6-acetamido-2(S)-(benzyloxycarbonylamino)-hexanamido)phenyl)methyl)-2-(2-azidoacetylamino)-2-deoxy-3,4,6-tri-O-acetyl-D-mannopyranoside]	98	87	100	90	250

Further lines, with some results ahead:

Compound Remaining (%) Mouse 1 h [2] [%]	Compound Remaining (%) Mouse 4 h [2] [%]	Compound Remaining (%) Human 1 h [3] [%]	Compound Remaining (%) Human 4 h [3] [%]	SMILES	activity at 25 µM [1] [%]
77	28	63	10	CC(=O)NCCCC[C@H](NC(C)=O)C(=O)Nc1ccc(C(OC2OC(COC(=O)Cc3cccnc3)C(OC(C)=O)C(OC(C)=O)C2NC(=O)CN=[N+]=[N-])c2ccnn2C)cc1 (stereo partly drawn) [Compound A17, 1-O-(1-(2-Methylpyrazol-3-yl)-1-(4-(2(S),6-diacetamidohexanamido)phenyl)-methyl)-2-(2-azidoacetylamino)-2-deoxy-3,4-di-O-acetyl-6-O-(pyridin-3-ylacetyl)-D-mannopyranoside]	161
72	19			CC(=O)NCCCC[C@H](NC(=O)OCc1ccccc1)C(=O)Nc1ccc(C(OC2OC(COC(C)=O)C(OC(C)=O)C(OC(C)=O)C2NC(=O)CN=[N+]=[N-])c2cncs2)cc1 (stereo partly drawn) [Compound A3, 1-O-(1-(thiazol-5-yl)-1-(4-(6-acetamido-2(S)-(benzyloxycarbonylamino)-hexanamido)phenyl)methyl)-2-(2-azidoacetylamino)-2-deoxy-3,4,6-tri-O-acetyl-D-mannopyranoside]	
4	0.6	88	65	CC(=O)NCCCC[C@H](NC(=O)OCc1ccccc1)C(=O)Nc1ccc(C(OC2OC(COC(C)=O)C(OC(C)=O)C(OC(C)=O)C2NC(=O)CN=[N+]=[N-])c2cccnc2)cc1 (stereo partly shown) [Compound A6]	
84	27	63	16	CC(=O)NCCCC[C@H](NC(=O)OCc1ccccc1)C(=O)Nc1ccc(C(OC2OC(COC(=O)C3CCOCC3)C(OC(C)=O)C(OC(C)=O)C2NC(=O)CN=[N+]=[N-])c2ccnn2C)cc1 (stereo partly drawn) [Compound A9, 1-O-(1-(2-methylpyrazol-3-yl)-1-(4-(6-acetamido-2(S)-(benzyloxycarbonyl-amino)hexanamido)phenyl)methyl)-2-(2-azidoacetylamino)-2-deoxy-3,4-di-O-acetyl-6-O-tetrahydropyran-4-ylcarbonyl-D-mannopyranoside]	197
89	40	63	19	CC(=O)NCCCC[C@H](NC(C)=O)C(=O)Nc1ccc(C(OC2OC(COC(C)=O)C(OC(C)=O)C(OC(C)=O)C2NC(=O)CN=[N+]=[N-])c2ccnn2C)cc1 (stereo partly drawn) [Compound A14, 1-O-(1-(2-Methylpyrazol-3-yl)-1-(4-(2(S),6-diacetamidohexanamido)phenyl)-methyl)-2-(2-azidoacetylamino)-2-deoxy-3,4,6-tri-O-acetyl-D-mannopyranoside]	620
81	21	62	5	CC(=O)NCCCC[C@H](NC(=O)OCc1ccccc1)C(=O)Nc1ccc(C(OC2OC(COC(=O)C3CCN(C)CC3)C(OC(C)=O)C(OC(C)=O)C2NC(=O)CN=[N+]=[N-])c2ccnn2C)cc1 (stereo partly drawn) [Compound A10, 1-O-(1-(2-Methylpyrazol-3-yl)-1-(4-(6-acetamido-2(S)-(benzyloxycarbonyl-amino)hexanamido)phenyl)methyl)-2-(2-azidoacetylamino)-2-deoxy-3,4-di-O-acetyl-6-O-(1-methylpiperidin-4-yl)carbonyl-D-mannopyranoside]	166
29	6	41	4	CC(=O)NCCCC[C@H](NC(=O)OCc1ccccc1)C(=O)Nc1ccc(C(OC2OC(COC(C)=O)C(OC(C)=O)C(OC(C)=O)C2NC(=O)CN=[N+]=[N-])c2ccncc2)cc1 (stereo partly drawn) [Compound A7, 1-O-(1-(Pyridin-4-yl)-1-(4-(6-acetamido-2(S)-(benzyloxycarbonylamino)hexan-amido)phenyl)methyl)-2-(2-azidoacetylamino)-2-deoxy-3,4,6-tri-O-acetyl-D-mannopyranoside]	
38	3			CC(=O)NCCCC[C@H](NC(=O)OCc1ccccc1)C(=O)Nc1ccc(C(OC2OC(COC(=O)CN3CCCC3)C(OC(C)=O)C(OC(C)=O)C2NC(=O)CN=[N+]=[N-])c2ccnn2C)cc1 (stereo partly drawn) [Compound A11, 1-O-(1-(2-Methylpyrazol-3-yl)-1-(4-(6-acetamido-2(S)-(benzyloxycarbonyl-amino)hexanamido)phenyl)methyl)-2-(2-azidoacetylamino)-2-deoxy-3,4-di-O-acetyl-6-O-(pyrrolin-1-ylacetyl)-D-mannopyranoside]	
